According to US20070269451A1, “Nucleic Acid Vaccination” (priority 1999, published 2007):
Entries after “also recorded” stand apart in the source; their conditions may differ.

What was measured:
anti-MUC1 antibody SM3 = test: ELISA binding of anti-MUC1 antibody SM3 to synthetic MUC1 VNTR peptides; design: key to ELISA signal, Antibody SM3: +++ indicates strong binding; ++ indicates fair binding; + indicates weak binding; − indicates no significant binding; settings: for ELISA signal, Antibody SM3: peptide coated 50 μg/ml to 25 ng/ml, semiquantitative scale, absorbance at 490 nm; for binding for the SM3 antibody (in words): Table 2
Text: (§1) Synthetic peptides were designed containing mutations at the glycosylation sites. Particular attention was focused on substitutions at the threonine residue in this sequence (T11). Table 1 below indicates the peptides that were designed and their mutated glycosylation sites. Peptides containing two identical copies of the designed VNTR were synthesised at Genemed Synthesis Inc (San Francisco, Calif.). These peptides were then screened for their ability to bind to a number of anti-MUC1 monoclonal antibodies in an ELISA.
(§2) Peptides were prepared as aqueous solutions in 50 mM sodium bicarbonate buffer pH9.6 and coated onto Nunc Maxisorp plates at 4° C. overnight at a range of concentrations between 50 μg/ml and 25 ng/ml. After extensive washing with TBS-Tween (Tris-buffered saline, pH7.4 containing 0.05% Tween20), the plates were blocked with blocking solution (3% w/v bovine serum albumin in TBS-Tween) for 2 hours at room temperature. Anti-MUC1 antibodies HMFG1 (Novocastra, Newcastle, UK), HMFG2 (Novocastra), SM3 (Girling et al, 1989, Int J Cancer 43:1072-1076) and ATR1 (Bynum et al, 1995, Hybridoma 14:587-591) were diluted in blocking solution, added to the plate and incubated at room temperature for one hour. After washing, bound antibody was labelled by incubation with HRP-conjugated anti-mouse IgG (P260, Dako, Denmark) at 1/2000 dilution in blocking buffer. The plate was washed again and bound conjugate detected using Fast OPD colour reagents (Sigma, Poole, UK). The reaction was stopped by the addition of 3M sulphuric acid, and the OPD product quantitated by measuring the absorbance at 490 nm.
(§3) The ELISA signal for each antibody and peptide combination is ranked according to a semiquantitative scale, where +++ indicates strong binding, ++ indicates fair binding, + indicates weak binding, and − indicates no significant binding.

anti-MUC1 antibody HMFG1 = test: ELISA binding of anti-MUC1 antibody HMFG1 to synthetic MUC1 VNTR peptides; design: key: +++ indicates strong binding; ++ indicates fair binding; + indicates weak binding; − indicates no significant binding; settings: peptide coated 50 μg/ml to 25 ng/ml; semiquantitative scale; absorbance at 490 nm
Text: as §1, §2, §3

anti-MUC1 antibody HMFG2 = test: ELISA binding of anti-MUC1 antibody HMFG2 to synthetic MUC1 VNTR peptides; design: key: +++ indicates strong binding; ++ indicates fair binding; + indicates weak binding; − indicates no significant binding; settings: peptide coated 50 μg/ml to 25 ng/ml; semiquantitative scale; absorbance at 490 nm
Text: as §1, §2, §3

anti-MUC1 antibody ATR1 = test: ELISA binding of anti-MUC1 antibody ATR1 to synthetic MUC1 VNTR peptides; design: key: +++ indicates strong binding; ++ indicates fair binding; + indicates weak binding; − indicates no significant binding; settings: peptide coated 50 μg/ml to 25 ng/ml; semiquantitative scale; absorbance at 490 nm
Text: as §1, §2, §3

antibody SM3 = test: Antibody binding curve for the mutant polypeptides (SM3 ELISA, FIG. 4); settings: peptide coated at 3 ug/ml
Method: as §2
The polypeptides described in table 1 above were again used in this experiment. The methodology was essentially similar to Example 1 except that peptides were coated onto an ELISA plate at a fixed concentration of 3 ug/ml, and different concentrations of antibody SM3 were applied.

[1] = different concentrations of SM3

Substance | ELISA signal, Antibody SM3 (anti-MUC1 antibody SM3) | ELISA signal, Antibody HMFG1 (anti-MUC1 antibody HMFG1) | ELISA signal, Antibody HMFG2 (anti-MUC1 antibody HMFG2) | ELISA signal, Antibody ATR1 (anti-MUC1 antibody ATR1) | SM3 antibody binding pattern / affinity across a range of antibody concentrations (antibody SM3; [1]) | SM3 antibody binding pattern / affinity across a range of antibody concentrations (antibody SM3; different concentrations of SM3, listed as Mut 5A) | binding for the SM3 antibody (in words) (anti-MUC1 antibody SM3)
Ac-(PAHGVVAAPDARPAPGAVAP)2-NH2 [Mut5A] | − | ++ | − | +++ | essentially the same as those shown for Mut5W | substantially the same results as those shown for Mut5W | 
Ac-(PAHGVVAAPDIRPAPGAVAP)2-NH2 [Mut5I] | +++ | ++ | +++ | ++ | does little to reduce the affinity |  | maintain binding
Ac-(PAHGVVAAPDNRPAPGAVAP)2-NH2 [Mut5N] | − | − | − | +++ | substantially the same results as those shown for Mut5W; also recorded: essentially the same as those shown for Mut5W |  | 
Ac-(PAHGVVAAPDPRPAPGAVAP)2-NH2 [Mut5P] | − | + | − | + | substantially the same results as those shown for Mut5W; also recorded: essentially the same as those shown for Mut5W |  | 
Ac-(PAHGVVAAPDTRPAPGAVAP)2-NH2 [Mut4] | +++ | ++ | +++ | +++ |  |  | 
Ac-(PAHGVVAAPDVRPAPGAVAP)2-NH2 [Mut5V] | +++ | − | +++ | +++ | does little to reduce the affinity |  | maintain binding
Ac-(PAHGVVAAPDWRPAPGAVAP)2-NH2 [Mut5W] | − | − | − | ++ |  |  | 
